# Data: paper PMC8699473, “An Easily Expandable Multi-Drug LC-MS Assay for the Simultaneous Quantification of 57 Oral Antitumor Drugs in Human Plasma” (Cancers, 2021)
# Experiments:
# [1] = Freeze-thaw stability in spiked pooled human plasma; type: physicochemical
# [2] = Autosampler stability of ready for injection samples; type: physicochemical, human
# [3] = parameters: method as in supplement references [1-55] as printed per drug; settings: minimum steady-state blood plasma concentration after multiple dose administration; ref supplement references [1-55] per drug; cited from earlier work
SMILES,Freeze-Thaw Accuracy [%] ([1]; validation standard 2xLLOV),Freeze-Thaw Accuracy [%] ([1]; validation standard LLOV),Freeze-Thaw Accuracy [%] ([1]; validation standard MOV),Freeze-Thaw Accuracy [%] ([1]; validation standard ULOV),"Autosampler (24h, 4°C) Accuracy [%] ([2]; validation standard 2xLLOV)","Autosampler (72h, 4°C) Accuracy [%] ([2]; validation standard 2xLLOV)","Autosampler (24h, 4°C) Accuracy [%] ([2]; validation standard LLOV)","Autosampler (72h, 4°C) Accuracy [%] ([2]; validation standard LLOV)","Autosampler (24h, 4°C) Accuracy [%] ([2]; validation standard MOV)","Autosampler (72h, 4°C) Accuracy [%] ([2]; validation standard MOV)","Autosampler (24h, 4°C) Accuracy [%] ([2]; validation standard ULOV)","Autosampler (72h, 4°C) Accuracy [%] ([2]; validation standard ULOV)",cmin [3]
Cc1ccc(NC(=O)c2ccc(CN3CCN(C)CC3)cc2)cc1Nc1nccc(-c2cccnc2)n1 [Imatinib],98.5%,100.6%,96.7%,96.3%,115.2%,116.1%,102.3%,103.7%,108.3%,101.7%,95.3%,95.2%,
C[C@@H](Oc1cc(-c2cnn(C3CCNCC3)c2)cnc1N)c1c(Cl)ccc(F)c1Cl [Crizotinib],94.8%,72.2%,102.4%,92.4%,105.2%,103.5%,88.1%,86.1%,108.4%,103.8%,96.5%,94.7%,274 ng/mL
CN(C)C/C=C/C(=O)Nc1cc2c(Nc3ccc(F)c(Cl)c3)ncnc2cc1O[C@H]1CCOC1 [Afatinib],100.0%,93.5%,96.1%,95.0%,103.2%,99.3%,91.7%,83.0%,102.6%,103.4%,98.7%,99.3%,14.4 ng/mL
COc1cc2nccc(Oc3ccc(NC(=O)NC4CC4)c(Cl)c3)c2cc1C(N)=O [Lenvatinib],102.5%,111.6%,98.4%,103.0%,102.4%,97.9%,110.0%,103.7%,100.6%,98.6%,102.6%,102.7%,
C#Cc1cccc(Nc2ncnc3cc(OCCOC)c(OCCOC)cc23)c1 [Erlotinib],100.9%,113.3%,100.4%,102.0%,102.3%,98.1%,,103.9%,103.3%,98.3%,103.4%,102.9%,1011 ng/mL
O=C(c1cc(Cc2n[nH]c(=O)c3ccccc23)ccc1F)N1CCN(C(=O)C2CC2)CC1 [Olaparib],99.5%,113.4%,96.6%,100.5%,103.8%,100.5%,111.6%,111.2%,100.5%,98.0%,103.8%,100.5%,1570 ng/mL
Nc1cccc2c1C(=O)N(C1CCC(=O)NC1=O)C2=O (stereo not drawn) [Pomalidomide],90.9%,74.4%,90.1%,92.4%,104.1%,103.5%,104.9%,96.5%,104.5%,97.7%,100.5%,97.9%,10.9 ng/mL
O=c1[nH]c(=O)n([C@H]2C[C@H](O)[C@@H](CO)O2)cc1C(F)(F)F [Trifluridine],101.6%,80.9%,94.4%,91.6%,117.8%,107.4%,97.0%,86.9%,113.1%,102.7%,104.4%,98.4%,
O=C(c1ccc(F)c(F)c1Nc1ccc(I)cc1F)N1CC(O)([C@@H]2CCCCN2)C1 [Cobimetinib],98.6%,98.3%,97.3%,96.3%,100.3%,100.8%,94.6%,93.0%,105.2%,103.1%,102.5%,107.2%,127 ng/mL
CNC(=O)c1cc(Oc2ccc(NC(=O)Nc3ccc(Cl)c(C(F)(F)F)c3)c(F)c2)ccn1 [Regorafenib],97.1%,101.6%,96.2%,98.6%,101.6%,101.1%,107.3%,102.1%,101.4%,104.4%,104.2%,99.3%,1400 ng/mL
